# According to patent publication US20260069693A1, “UROLITHINS AND T-CELL MEDIATED IMMUNE RESPONSE” (priority 2022, published 2026):
# Legend:
# [1] = tested on: CEA-CAR T cells; assay: UA applied to previously frozen CEA-CAR T cells; format: cell-based, human; settings: previously frozen CEA-specific CAR-T cells, UA for three days
# [2] = tested on: APTK-s.c. tumors; assay: subcutaneous APTK tumors, UA-supplemented diet; format: in vivo, C57BL/6 mice
# Protocol: Tumors were minced and digested with Tumor & Tissue Dissociation Reagent (BD Horizon) for 30 min. The remaining organ pieces were filtered through a 70 μm cell strainer. Cells were then washed with PBS 1% BSA and 2 mM EDTA. Immune cells were enriched on a 30%/40%/75% Percoll gradient after a 1700 rpm 17 min centrifugation. Then, tumor immune filtrates or activated T cells were stained with Fixable Viability Dye-eF780 (65-0865-14; eBioscience), αCD45-FITC (30-F11; 11-0451-85; eBioscience), αCD11b-BV650 (M1/70; 56340; BD) α-CD11C-BV785 (HL3; 563735; BD), αLy6G-BV605 (53-6.7; 563005; BD), αLy6C-AF700 (HK1.4; 128024; Biolegend), αF4/80-PE (BM8; 12-4801-82, eBioscience), αPD-L1-PECy7 (MIH5; 25-5982-80, eBioscience); or with Fixable Viability Dye-eF780 (ebioscience), αCD45-BV786 (30-F11; 564225; BD), αCD4-BUV496 (GK1.5; 564667; BD), αCD8-BV605 (100744; Biolegend), αPD1-APC (J43; 17-9985-82; eBioscience), αTIM-3-PECy7 (RMT3-23; 119715; Biolegend), αCTLA4-PE (UC10-4B9; 106305; Biolegend) and αLag3-BV421 (C9B7W; 125221, Biolegend); or with Fixable Viability Dye-eF780 (eBioscience), αCD4-FITC (H129.19; 553650; BD), αCD8-APC (53-6.7; 17-0081-83; eBioscience), αCD44-AF400 (IM7; 103026; Biolegend), αCD62L-BV785 (MEL-14; 104440; Biolegend), αSca-1-PerCP-Cy5.5 (D7; 45-5981-82; eBioscience), αCD95-PE (Jo2; 554258; BD); or with Fixable Viability Dye-eF780 (eBioscience), αCD8-BV650 (53-6.7; 563234; BD), αCD4-BUV496 (GK1.5; 564667; BD), αCD127-APC (A7R34; 17-1271-82; eBioscience), αCD95-FITC (SA367H8; 152605; Biolegend), αCD44-AF400 (IM7; 103026; Biolegend), αCD62L-BV785 (MEL-14; 104440; Biolegend), αSca-1-PerCP-Cy5.5 (D7; 45-5981-82; eBioscience) followed by intracellular staining of αTCF1-PE (S33-966; 564217; BD), or PGC-1α (sc-518025; D-5; santa cruz), or αCyclinD1 (MA5-28534, DCS-6; Invitrogen) with transcription factor buffer set kit (BD Biosciences). To study cytokine expression, tumor immune infiltrates were stimulated ex vivo with 20 ng/ml PMA and 1 μg/ml Ionomycin (Sigma) for 3 h in T cell activation medium with Brefeldin A (Biolegend).
# [3] = tested on: T cells; assay: qPCR and RNA sequencing of stimulated T cells; format: cell-based, mice
# Protocol: To explore the downstream events linking mitophagy to TSCM formation, the inventors performed RNA sequencing to globally assess differential gene expression in T cells exposed for 48 hours to either DMSO or UA in vitro. […] Indeed, when the inventors applied ICG001 to pharmacologically block TCF-1, UA-induced TSCM formation in vitro was abrogated (FIG. 5D-E).
# In vitro activated T cells following the indicated treatments were collected followed by RNA isolation using the RNeasy kit (Qiagen). RNA quality and concentration were determined by Nanodrop spectrophotometer. Complementary DNA was generated using SuperScript II reverse transcriptase (ThermoFisher). A total reaction volume of 13 μl RNA was incubated with oligoDT and DNTP Mix (1 μl each) for 5 min at 65° C. The samples were allowed to cool down for 5 min on ice, and to each 4 μl of 5× First strand buffer, 1 μl DTT, 1 μl RNAseOUT™ and 1 μl Superscript II reverse transcriptase were added. Samples were incubated for 1 h at 42° C. Synthesized cDNA was 1:5 diluted in nuclease free water before being processed into gene expression analysis with the 96 wells StepOne real time PCR Machine (Applied biosystems) using 2× FastStart Universal SYBR Green Master Mix (Roche). CT values were normalized to the gene indicated in the respective figures. The following primers were used: […]
# For RNA isolation of in vitro stimulated T cells, RNeasy mini kit (Qiagen) was used. 200 ng of total RNA was used to prepare the library for RNA sequencing. Coexpression patterns of genes associated with effector and memory cell fate, immune checkpoints, effector molecules, and adhesion/homing were chosen based on the literature as depicted in the main text. Data underwent z-score normalization for display as described previously (Xiong et al., 2020). Upstream regulator analysis was performed using Ingenuity pathway analysis software, using a cut-off log 2fold change of 1 and a p value of […].
# [4] = restimulated with PMA/ionomycin ex vivo
structure (smiles),measurement,setting,value
"O=c1oc2cc(O)ccc2c2ccc(O)cc12 [UA, Urolithin A]",CAR TSCM formation,[1],strongly enhanced
same,mitochondrial content in TIL of APTK tumors,"[2]; CD8+ TIL, UA vs control diet",increased
same,CD4+ TSCM in APTK-induced tumors,[2]; UA-containing vs control diet,no change
same,TCF1 expression in tumor infiltrating CD8+ T cells,[2]; UA-containing vs control diet,increased expression
same,"dendritic cells (DCS), TAMs, or MDSC subsets in TME",[2]; UA-containing vs control diet,no change
same,CD8+CD44loCD62LhiSca1hi T cells in APTK-induced tumors,"[2]; UA-containing vs control diet, CD8+ TIL",marked increase
same,exhaustion marker CTLA-4 in CD8+ T cells,"[2]; UA-fed mice, CD8+ TIL",reduction
same,exhaustion marker PD-1 in CD8+ T cells,"[2]; UA-fed mice, CD8+ TIL",reduction
same,exhaustion marker Tim3 in CD8+ T cells,"[2]; UA-fed mice, CD8+ TIL",reduction
same,CD8+ T cell infiltration in tumors,[2]; UA-supplemented diet vs control food,enhanced
same,induction of IFNg in tumor infiltrating CD8+ T cells,[2]; [4],stronger induction
same,induction of TNFa in tumor infiltrating CD8+ T cells,[2]; [4],stronger induction
same,transcription of several Wnt target genes,[3],increased transcription
same,"expression of Cd27, Ccr7 and adhesion genes","[3]; RNA sequencing, 48 h",enhancing expression
same,expression of effector fate associated genes Prdm1 and Id2,"[3]; RNA sequencing, 48 h",reduced expression
same,expression of genes that code for immune checkpoints and effector molecules,"[3]; RNA sequencing, 48 h",reduced the expression
same,"genes involved in memory formation such as Tcf7, Bach2 and Bcl6","[3]; RNA sequencing, 48 h",special enrichment
same,Atg5 gene expression,"[3]; qPCR, 24 h, UA 50 μM",significant upregulation
same,Atg7 gene expression,"[3]; qPCR, 24 h, UA 50 μM",significant upregulation
same,Lamp2 gene expression,"[3]; qPCR, 24 h, UA 50 μM",significant upregulation
same,Pink1 gene expression,"[3]; qPCR, 24 h, UA 50 μM",significant upregulation
same,p62 gene expression,"[3]; qPCR, 24 h, UA 50 μM",significant upregulation
